Test [1] has as its system T1, EGIDFPOO_00532.
T1 construct: N-terminal 6xHis-tag, pET-28b(+) NheI/XhoI, E. coli Rosetta; primers encode N-term MLVFPDSFL and C-term KYGLPEL
In words: nitrophenol release, absorbance. The format is biochemical, Thermococcus sp. 2319x1E. The settings on record: pH 8.0, 100°C; refolding buffer with 2 M urea, 10% sucrose.

In test [2] the test system is T2, EGIDFPOO_00674.
T2 construct: C-terminal 6xHis-tag, pET-28b(+) NcoI/EcoRI, E. coli Rosetta; Ni-IDA purified; primers encode N-term MGYQKFGYHFHA and C-term NGASIGPGF before HHHHHH; GH57 domain 52-300, predicted catalytic E153/D253
In words: nitrophenol release, absorbance. It counts as biochemical, Thermococcus sp. 2319x1E. The settings on record: pH 8.0 (50 mM Tris-HCl), 100°C.

Molecules are shown by their SMILES.

In general, Km refers to the substrate concentration at which the rate is half of its maximum.

`O=[N+]([O-])c1ccccc1O[C@@H]1O[C@H](CO)[C@H](O)[C@H](O)[C@H]1O` [ONPG]: the Km in test [1] came out at 6.23 mM.

As to `CC(=O)Oc1ccc([N+](=O)[O-])cc1` [PNPA], the Km in test [2] is 2.57 mM.

For `O=[N+]([O-])c1ccc(O[C@@H]2O[C@H](CO)[C@@H](O)[C@H](O)[C@H]2O)cc1` [PNPG], the Michaelis constant (Km) in test [1] worked out at 0.18 mM.

In the case of `O=[N+]([O-])c1ccc(O[C@@H]2OC[C@@H](O)[C@H](O)[C@H]2O)cc1` [PNPX], the Michaelis-Menten constant (Km) in test [1] came to 4.38 mM.

Source of the values: paper PMC8790579, “Activity-Based Protein Profiling for the Identification of Novel Carbohydrate-Active Enzymes Involved in Xylan Degradation in the Hyperthermophilic Euryarchaeon Thermococcus sp. Strain 2319x1E” (Frontiers in Microbiology, 2022).
